Assay results as given in ChEMBL document CHEMBL1201862, “PubChem BioAssay data set” (2004).
Calls of active or inactive are those of the source. Cut-off read from the data, not from the text of the source, for most assays here: actives have a measured EC50 and inactives only a lower limit.

What was measured:
[1] = tested on: Streptococcus sp. 'group A'; assay: growth inhibition of control SK(-) GAS strain, dose response, counter-screen for streptokinase expression inhibitor project, luminescence, kanamycin, BacTiterGlo, confirmation (AID 1900); format: functional, organism-based
[2] = tested on: Streptococcus; assay: Group A Streptococcus viability loss, dose response, counter-screen for streptokinase expression inhibitor project, luminescence, BacTiterGlo (AID 1915); format: functional, organism-based;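 note: potency for reduction of bacterial viability or growth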
[3] = target: T1, Streptokinase A (Streptococcus pyogenes serotype M1, UniProt P10520); assay: S. pyogenes streptokinase expression inhibitors, potency, dose response, plasminogen activation absorbance, OD405 (AID 1914); format: functional, Streptococcus pyogenes M1 GAS;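 note: secreted streptokinase activity via plasminogen activation per viability signal from cell pellet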
T1 sequence (P10520 whole entry): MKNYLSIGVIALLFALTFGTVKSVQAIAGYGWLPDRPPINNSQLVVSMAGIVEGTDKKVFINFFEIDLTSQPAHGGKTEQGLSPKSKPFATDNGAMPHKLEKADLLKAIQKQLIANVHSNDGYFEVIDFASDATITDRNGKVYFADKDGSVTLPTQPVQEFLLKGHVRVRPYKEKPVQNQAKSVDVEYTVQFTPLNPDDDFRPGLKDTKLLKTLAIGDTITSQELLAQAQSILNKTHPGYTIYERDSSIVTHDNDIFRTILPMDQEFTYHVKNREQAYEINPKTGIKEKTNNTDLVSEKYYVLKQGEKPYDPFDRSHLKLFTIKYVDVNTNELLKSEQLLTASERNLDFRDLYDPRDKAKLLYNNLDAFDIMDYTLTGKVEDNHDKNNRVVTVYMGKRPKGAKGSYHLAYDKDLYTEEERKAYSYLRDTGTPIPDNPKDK

[4] = target: T2, Protein RecA (Mycobacterium tuberculosis, UniProt P9WHJ3); assay: Fluorescence Cell-Free Homogeneous Dose Retest to Identify Inhibitors of RecA-Intein Splicing Activity. [Related pubchem assays (depositor defined):AID2097, AID2223, AID489010, AID492950]; format: functional
T2 sequence (P9WHJ3 whole entry): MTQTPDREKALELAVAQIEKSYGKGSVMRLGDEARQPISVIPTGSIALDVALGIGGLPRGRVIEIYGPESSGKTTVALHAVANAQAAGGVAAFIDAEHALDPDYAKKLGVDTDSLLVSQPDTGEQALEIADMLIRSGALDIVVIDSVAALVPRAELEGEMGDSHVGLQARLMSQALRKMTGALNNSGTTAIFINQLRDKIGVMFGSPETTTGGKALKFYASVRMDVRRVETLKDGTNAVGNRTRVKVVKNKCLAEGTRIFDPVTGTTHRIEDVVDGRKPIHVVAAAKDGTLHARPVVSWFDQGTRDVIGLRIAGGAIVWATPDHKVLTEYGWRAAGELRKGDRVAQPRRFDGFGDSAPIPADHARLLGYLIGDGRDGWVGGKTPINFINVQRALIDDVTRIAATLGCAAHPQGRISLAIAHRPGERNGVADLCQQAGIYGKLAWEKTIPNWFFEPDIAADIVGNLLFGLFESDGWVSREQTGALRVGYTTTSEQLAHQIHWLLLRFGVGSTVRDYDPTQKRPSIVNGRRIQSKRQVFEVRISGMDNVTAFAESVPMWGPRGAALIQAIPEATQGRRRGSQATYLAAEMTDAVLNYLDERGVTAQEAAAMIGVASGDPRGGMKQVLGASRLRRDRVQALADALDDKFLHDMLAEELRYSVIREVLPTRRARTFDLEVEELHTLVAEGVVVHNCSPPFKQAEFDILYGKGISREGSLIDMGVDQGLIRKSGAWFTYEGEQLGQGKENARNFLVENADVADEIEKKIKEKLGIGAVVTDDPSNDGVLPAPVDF

[5] = target: T3, Replicative DNA helicase DnaB (Mycobacterium tuberculosis, UniProt P9WMR3); assay: DnaB intein splicing inhibitors, dose response, biochemical, cell-free fluorescence (AID 449749); format: functional
T3 sequence (P9WMR3 whole entry): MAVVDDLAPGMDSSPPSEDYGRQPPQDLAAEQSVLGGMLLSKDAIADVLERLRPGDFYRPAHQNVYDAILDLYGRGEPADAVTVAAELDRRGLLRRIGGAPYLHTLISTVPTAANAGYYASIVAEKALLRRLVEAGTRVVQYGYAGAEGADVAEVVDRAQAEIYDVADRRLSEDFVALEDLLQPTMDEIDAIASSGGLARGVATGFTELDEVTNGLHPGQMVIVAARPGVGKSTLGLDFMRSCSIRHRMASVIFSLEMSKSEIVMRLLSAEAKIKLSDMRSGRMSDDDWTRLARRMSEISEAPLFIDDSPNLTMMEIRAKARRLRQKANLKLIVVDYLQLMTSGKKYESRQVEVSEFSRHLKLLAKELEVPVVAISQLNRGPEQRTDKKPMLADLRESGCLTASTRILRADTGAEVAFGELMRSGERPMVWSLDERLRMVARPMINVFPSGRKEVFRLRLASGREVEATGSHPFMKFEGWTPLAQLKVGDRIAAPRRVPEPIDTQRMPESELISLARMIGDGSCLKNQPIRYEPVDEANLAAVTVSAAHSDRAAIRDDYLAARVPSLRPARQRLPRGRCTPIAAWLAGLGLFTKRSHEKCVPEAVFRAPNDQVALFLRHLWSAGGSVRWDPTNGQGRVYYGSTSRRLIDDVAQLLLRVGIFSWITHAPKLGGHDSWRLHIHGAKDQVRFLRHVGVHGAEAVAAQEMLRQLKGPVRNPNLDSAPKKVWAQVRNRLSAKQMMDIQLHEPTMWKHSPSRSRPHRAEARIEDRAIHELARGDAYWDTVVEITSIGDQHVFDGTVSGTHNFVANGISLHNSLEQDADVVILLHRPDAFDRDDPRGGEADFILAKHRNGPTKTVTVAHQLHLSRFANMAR

[6] = target: T4, Tyrosyl-DNA phosphodiesterase 2 (Homo sapiens, UniProt O95551); assay: human TDP2 enzyme inhibitors, dose response, biochemical, epi absorbance, IC50 (AID 743297)
T4 sequence (O95551 whole entry): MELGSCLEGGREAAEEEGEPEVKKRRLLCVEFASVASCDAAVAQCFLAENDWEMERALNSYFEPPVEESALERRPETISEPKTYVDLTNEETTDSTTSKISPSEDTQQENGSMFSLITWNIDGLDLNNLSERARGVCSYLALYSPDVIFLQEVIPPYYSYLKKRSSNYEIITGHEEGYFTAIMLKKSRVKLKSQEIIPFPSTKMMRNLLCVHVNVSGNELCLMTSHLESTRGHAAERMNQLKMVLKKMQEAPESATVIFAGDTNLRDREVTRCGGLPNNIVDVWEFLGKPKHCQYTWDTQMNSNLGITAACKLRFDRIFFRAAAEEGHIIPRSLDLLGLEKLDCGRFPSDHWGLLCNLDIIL

| SMILES | EC50 [1] | EC50 [2] | EC50 [3] | EC50 [4] | AC50 [5] | IC50 [6] |
| --- | --- | --- | --- | --- | --- | --- |
| CCc1nnc(NS(=O)(=O)c2ccc(NC(=S)NC(=O)/C=C/c3ccc(C(C)C)cc3)cc2)s1 | 2.39 µM (active) | 7.83 µM (active) | 4.44 µM (active) | 33.4 µM (active) | 3.15 µM (active) | – |
| COc1ccc(S(=O)(=O)Nc2cc(SCC(=O)O)c(O)c3ccccc23)cc1 | – | – | – | 0.234 µM (active) | 0.885 µM (active) | 75.9 µM (inactive) |
| O=C1C(Nc2ccc(O)cc2)=C/C(=N/S(=O)(=O)c2cccs2)c2ccccc21 | 1.68 µM (active) | 7.1 µM (active) | > 150 µM (not active) | 0.123 µM (active) | 0.128 µM (active) | 0.698 µM (active) |
| COC(=O)C(O)(c1c(C)[nH]n(-c2ccccc2)c1=O)C(F)(F)F (configuration not stated) | – | – | – | 3.74 µM (active) | < 0.018 µM (active) | 12.7 µM (inactive) |
| CC1CC(=O)c2c(cc3c(-c4c(O)cc(O)c5c(O)c6c(cc45)OC(C)CC6=O)c(O)cc(O)c3c2O)O1 (configuration not stated) [CEPHALOCHROMIN] | 0.348 µM (active) | 0.991 µM (active) | > 150 µM (not active) | 1.57 µM (active) | 1.78 µM (active) | – |
